Two compounds from ChEMBL document CHEMBL3804761, “Synthesis of a stable and orally bioavailable englerin analogue” (Bioorg Med Chem Lett, 2016) can be followed below.

Calls of active or inactive are those of the source. The calls are words filed in the database; no cut-off is given here.

For this experiment, the target named is Protein kinase C (PKC) (Homo sapiens) (UniProt O94806+P41743+P17252+P05129+Q05655+P05771+Q05513+Q02156+P24723+Q15139+Q04759). The experiment is described as follows: Activation of PKC in human 786-0 cells at 1 uM. The class given is cell-based.

As for `CC(C)[C@@]12C[C@@H](OC(=O)CO)[C@@](C)(O1)[C@@H]1CC[C@@H](C)[C@H]1[C@@H]2OC(=O)/C(Cl)=C/c1ccccc1`, the result was Active.

Consider `CC/C(C)=C/C(=O)O[C@@H]1[C@H](C)C[C@H]2O[C@]1(O)[C@@H](O)[C@@]1(C)CC[C@H](O1)C(C)(C)/C=C/[C@H](C)C2=O`, for which the outcome was Active.
